In patent US20100137449A1, “SUBSTITUTED 1,3-CYCLOPENTADIONE MULTI-TARGET PROTEIN KINASE MODULATORS OF CANCER, ANGIOGENESIS AND THE INFLAMMATORY PATHWAYS ASSOCIATED THEREWITH” (METAPROTEOMICS, LLC, priority 2007, published 2010):

Columns and labels:
Assay in all cases: KinaseProfiler Assay
[1] = target: T1, ULK2(h) (Homo sapiens, UniProt Q8IYT8)
T1 sequence (Q8IYT8 1-1036): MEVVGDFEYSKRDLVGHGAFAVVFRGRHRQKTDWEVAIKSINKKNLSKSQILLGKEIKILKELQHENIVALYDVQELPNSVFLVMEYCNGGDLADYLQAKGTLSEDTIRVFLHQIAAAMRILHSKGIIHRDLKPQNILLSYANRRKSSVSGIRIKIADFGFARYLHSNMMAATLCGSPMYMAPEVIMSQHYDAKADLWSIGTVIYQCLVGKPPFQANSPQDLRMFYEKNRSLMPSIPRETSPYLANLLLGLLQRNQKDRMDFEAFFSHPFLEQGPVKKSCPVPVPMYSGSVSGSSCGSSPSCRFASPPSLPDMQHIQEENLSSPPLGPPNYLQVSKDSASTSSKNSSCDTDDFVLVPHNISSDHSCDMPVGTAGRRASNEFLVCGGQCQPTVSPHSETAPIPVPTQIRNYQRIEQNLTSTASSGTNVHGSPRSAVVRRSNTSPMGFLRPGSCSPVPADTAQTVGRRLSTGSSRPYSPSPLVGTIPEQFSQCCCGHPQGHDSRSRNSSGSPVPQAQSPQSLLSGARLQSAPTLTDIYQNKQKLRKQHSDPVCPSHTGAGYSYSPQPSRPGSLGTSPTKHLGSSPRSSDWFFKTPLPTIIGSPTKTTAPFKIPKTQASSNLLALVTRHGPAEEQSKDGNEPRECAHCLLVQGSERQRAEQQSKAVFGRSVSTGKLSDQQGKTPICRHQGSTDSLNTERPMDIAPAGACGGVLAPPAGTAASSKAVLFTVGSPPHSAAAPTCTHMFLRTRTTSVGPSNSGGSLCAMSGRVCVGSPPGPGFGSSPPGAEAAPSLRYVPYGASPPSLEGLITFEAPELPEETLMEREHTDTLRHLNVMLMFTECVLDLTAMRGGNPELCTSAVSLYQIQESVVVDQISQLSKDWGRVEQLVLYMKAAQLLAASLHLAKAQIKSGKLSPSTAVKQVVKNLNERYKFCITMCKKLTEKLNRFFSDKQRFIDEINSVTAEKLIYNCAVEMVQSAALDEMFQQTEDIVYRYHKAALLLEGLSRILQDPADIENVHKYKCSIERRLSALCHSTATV

[2] = target: FGFR3(h) (Homo sapiens, UniProt P22607)
[3] = target: T2, Aurora-A(h) (Homo sapiens, UniProt O14965)
T2 sequence (O14965 1-403): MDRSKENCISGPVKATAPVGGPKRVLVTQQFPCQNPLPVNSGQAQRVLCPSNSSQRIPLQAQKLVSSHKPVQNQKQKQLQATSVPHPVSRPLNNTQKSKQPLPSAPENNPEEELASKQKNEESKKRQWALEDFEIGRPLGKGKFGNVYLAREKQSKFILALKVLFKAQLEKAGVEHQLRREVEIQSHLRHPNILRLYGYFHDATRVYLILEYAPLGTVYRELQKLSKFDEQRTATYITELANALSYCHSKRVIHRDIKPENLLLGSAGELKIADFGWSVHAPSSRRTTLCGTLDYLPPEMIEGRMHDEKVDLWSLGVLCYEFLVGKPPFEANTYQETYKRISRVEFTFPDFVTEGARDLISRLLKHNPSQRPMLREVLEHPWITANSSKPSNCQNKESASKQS

[4] = target: P70S6K(h) (Homo sapiens, UniProt P23443)
[5] = target: CK1γ3(h) (Homo sapiens, UniProt Q9Y6M4)
[6] = target: PKCθ(h) (Homo sapiens, UniProt Q04759)
[7] = target: PKCα(h) (Homo sapiens, UniProt P17252)

Chain of PKCθ(h) (Q04759 whole entry): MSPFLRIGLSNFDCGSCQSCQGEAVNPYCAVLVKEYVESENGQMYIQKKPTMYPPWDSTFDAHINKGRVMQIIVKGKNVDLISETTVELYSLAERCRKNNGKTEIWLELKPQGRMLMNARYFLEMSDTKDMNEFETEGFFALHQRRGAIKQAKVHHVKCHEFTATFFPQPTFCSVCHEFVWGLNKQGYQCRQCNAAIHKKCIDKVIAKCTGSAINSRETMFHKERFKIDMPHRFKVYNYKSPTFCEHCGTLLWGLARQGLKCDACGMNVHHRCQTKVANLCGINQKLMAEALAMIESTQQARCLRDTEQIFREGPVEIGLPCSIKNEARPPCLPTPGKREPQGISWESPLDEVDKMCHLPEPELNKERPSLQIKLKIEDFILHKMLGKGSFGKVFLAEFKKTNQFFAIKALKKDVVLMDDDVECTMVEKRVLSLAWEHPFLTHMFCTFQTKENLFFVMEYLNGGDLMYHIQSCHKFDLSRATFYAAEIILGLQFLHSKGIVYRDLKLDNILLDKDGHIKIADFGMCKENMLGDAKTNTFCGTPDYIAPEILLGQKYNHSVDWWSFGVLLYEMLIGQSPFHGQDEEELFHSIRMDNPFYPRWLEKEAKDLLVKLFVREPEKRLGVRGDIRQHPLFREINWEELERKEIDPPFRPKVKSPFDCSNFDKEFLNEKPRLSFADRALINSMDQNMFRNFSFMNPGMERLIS
Chain of CK1γ3(h) (Q9Y6M4 whole entry): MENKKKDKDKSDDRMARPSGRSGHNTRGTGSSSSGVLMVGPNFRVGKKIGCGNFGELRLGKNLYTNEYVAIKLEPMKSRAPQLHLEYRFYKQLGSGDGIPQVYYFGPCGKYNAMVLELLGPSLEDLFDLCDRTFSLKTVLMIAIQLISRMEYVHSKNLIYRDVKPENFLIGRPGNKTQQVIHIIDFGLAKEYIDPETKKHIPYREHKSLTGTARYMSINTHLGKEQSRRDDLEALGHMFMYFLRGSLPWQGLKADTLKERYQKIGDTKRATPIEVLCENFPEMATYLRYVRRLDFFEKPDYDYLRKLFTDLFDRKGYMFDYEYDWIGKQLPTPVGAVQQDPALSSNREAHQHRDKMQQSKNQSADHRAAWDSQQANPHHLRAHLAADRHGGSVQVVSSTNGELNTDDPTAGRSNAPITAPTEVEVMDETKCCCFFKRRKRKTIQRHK
Chain of P70S6K(h) (P23443 whole entry): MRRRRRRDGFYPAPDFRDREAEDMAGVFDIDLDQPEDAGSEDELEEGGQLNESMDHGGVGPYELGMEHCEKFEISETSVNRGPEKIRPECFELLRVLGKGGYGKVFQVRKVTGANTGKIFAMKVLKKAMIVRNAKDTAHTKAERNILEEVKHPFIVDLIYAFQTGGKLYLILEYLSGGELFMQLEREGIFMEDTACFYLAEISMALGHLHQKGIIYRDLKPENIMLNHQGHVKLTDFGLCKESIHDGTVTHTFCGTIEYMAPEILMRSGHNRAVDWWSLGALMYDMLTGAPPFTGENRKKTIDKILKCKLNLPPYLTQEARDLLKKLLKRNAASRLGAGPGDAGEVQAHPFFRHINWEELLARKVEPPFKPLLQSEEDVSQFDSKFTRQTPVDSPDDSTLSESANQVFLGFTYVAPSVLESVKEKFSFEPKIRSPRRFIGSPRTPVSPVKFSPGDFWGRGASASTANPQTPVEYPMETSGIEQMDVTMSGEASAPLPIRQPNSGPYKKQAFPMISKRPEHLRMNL
Chain of FGFR3(h) (P22607 23-806): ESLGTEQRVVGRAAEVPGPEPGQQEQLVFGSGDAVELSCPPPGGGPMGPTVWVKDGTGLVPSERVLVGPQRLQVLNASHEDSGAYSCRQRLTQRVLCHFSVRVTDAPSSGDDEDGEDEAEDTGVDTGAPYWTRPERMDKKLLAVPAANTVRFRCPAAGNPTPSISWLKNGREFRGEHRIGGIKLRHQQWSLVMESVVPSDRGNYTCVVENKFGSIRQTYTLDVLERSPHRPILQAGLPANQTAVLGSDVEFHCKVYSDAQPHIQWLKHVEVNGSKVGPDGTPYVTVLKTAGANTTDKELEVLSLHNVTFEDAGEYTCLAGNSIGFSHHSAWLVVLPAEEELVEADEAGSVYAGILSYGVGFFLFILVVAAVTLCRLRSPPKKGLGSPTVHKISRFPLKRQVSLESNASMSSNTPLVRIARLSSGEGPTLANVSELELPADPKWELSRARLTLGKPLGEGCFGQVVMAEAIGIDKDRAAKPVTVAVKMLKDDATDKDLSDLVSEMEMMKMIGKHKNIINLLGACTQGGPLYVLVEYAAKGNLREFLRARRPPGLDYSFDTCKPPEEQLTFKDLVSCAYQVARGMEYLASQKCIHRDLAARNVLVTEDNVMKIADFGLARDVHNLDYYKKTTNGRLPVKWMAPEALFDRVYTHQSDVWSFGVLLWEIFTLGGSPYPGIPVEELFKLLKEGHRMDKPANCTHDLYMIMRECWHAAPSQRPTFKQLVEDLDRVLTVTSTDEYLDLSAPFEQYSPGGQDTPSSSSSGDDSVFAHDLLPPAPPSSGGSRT

CC(C)CCC(=O)[C@]1(O)C(O)=C(C(=O)C(C)C)C(=O)[C@H]1CCC(C)C [TH2, tetrahydroiso-cohumulone]
kinase inhibition ([1]; 1 μg/ml): 102% of control | kinase inhibition ([1]; 5 μg/ml): 52% of control | kinase inhibition ([1]; 25 μg/ml): 77% of control | kinase inhibition ([1]; 50 μg/ml): 106% of control | kinase inhibition ([1]; 100 μg/ml): 105% of control | kinase inhibition ([2]; 1 μg/ml): 94% of control | kinase inhibition ([2]; 5 μg/ml): 92% of control | kinase inhibition ([2]; 25 μg/ml): 67% of control | kinase inhibition ([2]; 50 μg/ml): 64% of control | kinase inhibition ([2]; 100 μg/ml): 51% of control | kinase inhibition ([3]; 1 μg/ml): 65% of control | kinase inhibition ([3]; 5 μg/ml): 24% of control | kinase inhibition ([3]; 25 μg/ml): 71% of control | kinase inhibition ([3]; 50 μg/ml): 57% of control | kinase inhibition ([3]; 100 μg/ml): 54% of control | kinase inhibition ([4]; 1 μg/ml): 108% of control | kinase inhibition ([4]; 5 μg/ml): 108% of control | kinase inhibition ([4]; 25 μg/ml): 108% of control | kinase inhibition ([4]; 50 μg/ml): 92% of control | kinase inhibition ([4]; 100 μg/ml): 69% of control | kinase inhibition ([5]; 1 μg/ml): 96% of control | kinase inhibition ([5]; 5 μg/ml): 91% of control | kinase inhibition ([5]; 25 μg/ml): 83% of control | kinase inhibition ([5]; 50 μg/ml): 43% of control | kinase inhibition ([5]; 100 μg/ml): 34% of control | kinase inhibition ([6]; 1 μg/ml): 101% of control | kinase inhibition ([6]; 5 μg/ml): 84% of control | kinase inhibition ([6]; 25 μg/ml): 116% of control | kinase inhibition ([6]; 50 μg/ml): 96% of control | kinase inhibition ([6]; 100 μg/ml): 83% of control | kinase inhibition ([7]; 1 μg/ml): 103% of control | kinase inhibition ([7]; 5 μg/ml): 99% of control | kinase inhibition ([7]; 25 μg/ml): 98% of control | kinase inhibition ([7]; 50 μg/ml): 98% of control | kinase inhibition ([7]; 100 μg/ml): 71% of control
